From ChEMBL document CHEMBL5291721, “A preclinical secondary pharmacology resource illuminates target-adverse drug reaction associations of marketed drugs” (Nat Commun, 2023)

How the values were obtained:
[1] = molecular target: Prostaglandin G/H synthase 1 (Homo sapiens, UniProt P23219); assay type: functional
Thromboxane A2 receptor = molecular target: T1, Thromboxane A2 receptor (Homo sapiens, UniProt P21731); assay type: functional, cell-based
T1 sequence (P21731 whole entry): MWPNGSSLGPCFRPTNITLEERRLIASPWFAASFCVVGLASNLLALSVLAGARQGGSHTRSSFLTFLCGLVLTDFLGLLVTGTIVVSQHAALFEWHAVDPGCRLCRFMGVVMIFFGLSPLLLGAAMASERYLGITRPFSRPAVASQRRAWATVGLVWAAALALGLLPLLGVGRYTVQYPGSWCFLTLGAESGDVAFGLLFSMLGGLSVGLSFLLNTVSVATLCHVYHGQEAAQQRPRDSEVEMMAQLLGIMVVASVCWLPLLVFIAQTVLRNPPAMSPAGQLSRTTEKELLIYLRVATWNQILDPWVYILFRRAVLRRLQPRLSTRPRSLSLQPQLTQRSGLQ

[2] = molecular target: T2, Muscarinic acetylcholine receptor M2 (Homo sapiens, UniProt P08172)
T2 sequence (P08172 whole entry): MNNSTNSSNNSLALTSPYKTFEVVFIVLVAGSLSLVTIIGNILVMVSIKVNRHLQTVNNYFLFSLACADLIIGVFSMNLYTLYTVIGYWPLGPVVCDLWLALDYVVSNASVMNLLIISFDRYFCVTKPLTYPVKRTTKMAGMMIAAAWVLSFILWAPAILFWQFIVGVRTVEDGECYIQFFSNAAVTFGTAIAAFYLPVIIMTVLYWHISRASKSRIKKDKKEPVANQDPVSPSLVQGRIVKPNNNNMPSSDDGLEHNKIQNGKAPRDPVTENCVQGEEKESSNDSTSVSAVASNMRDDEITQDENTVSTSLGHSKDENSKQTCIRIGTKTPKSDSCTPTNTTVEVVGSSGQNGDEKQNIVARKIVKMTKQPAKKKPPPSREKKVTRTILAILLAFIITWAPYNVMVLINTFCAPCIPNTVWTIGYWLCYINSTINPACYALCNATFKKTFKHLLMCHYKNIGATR

[3] = molecular target: Sodium-dependent serotonin transporter (Homo sapiens, UniProt P31645)
[4] = molecular target: 3',5'-cyclic-AMP phosphodiesterase 4A (Homo sapiens, UniProt P27815); assay type: functional
[5] = molecular target: T3, Alpha-1A adrenergic receptor (Homo sapiens, UniProt P35348); assay type: functional, cell-based
T3 sequence (P35348 whole entry): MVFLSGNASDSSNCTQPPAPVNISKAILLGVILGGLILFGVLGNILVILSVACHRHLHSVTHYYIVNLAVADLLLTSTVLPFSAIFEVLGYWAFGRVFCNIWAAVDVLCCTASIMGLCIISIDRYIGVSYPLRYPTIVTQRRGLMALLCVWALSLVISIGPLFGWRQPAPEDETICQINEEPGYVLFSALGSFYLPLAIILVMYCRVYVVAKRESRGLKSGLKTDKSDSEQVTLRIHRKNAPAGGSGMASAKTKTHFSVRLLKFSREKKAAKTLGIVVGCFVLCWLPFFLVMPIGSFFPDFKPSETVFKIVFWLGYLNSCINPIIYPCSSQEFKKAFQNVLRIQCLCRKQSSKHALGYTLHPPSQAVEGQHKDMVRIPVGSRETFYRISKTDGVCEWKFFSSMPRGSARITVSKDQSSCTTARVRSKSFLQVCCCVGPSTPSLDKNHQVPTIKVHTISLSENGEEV

[6] = molecular target: T4, Muscarinic acetylcholine receptor M1 (Homo sapiens, UniProt P11229); assay type: functional, cell-based
T4 sequence (P11229 whole entry): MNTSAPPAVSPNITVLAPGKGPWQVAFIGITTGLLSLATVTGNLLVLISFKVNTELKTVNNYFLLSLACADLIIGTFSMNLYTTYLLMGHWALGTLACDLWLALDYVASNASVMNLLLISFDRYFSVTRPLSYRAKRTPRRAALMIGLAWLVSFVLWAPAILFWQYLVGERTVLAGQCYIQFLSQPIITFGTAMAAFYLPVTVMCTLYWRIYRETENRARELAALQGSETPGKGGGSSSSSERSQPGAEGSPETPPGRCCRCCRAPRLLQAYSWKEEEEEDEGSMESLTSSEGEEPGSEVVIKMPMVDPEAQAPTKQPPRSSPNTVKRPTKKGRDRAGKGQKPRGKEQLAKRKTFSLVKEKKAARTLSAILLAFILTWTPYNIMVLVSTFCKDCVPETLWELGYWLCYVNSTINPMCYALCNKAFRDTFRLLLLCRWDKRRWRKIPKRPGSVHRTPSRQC

Mu-type opioid receptor = Mu-type opioid receptor (Homo sapiens, UniProt P35372)
[7] = molecular target: Vascular endothelial growth factor receptor 2 (Homo sapiens, UniProt P35968); assay type: functional
[8] = molecular target: Sodium-dependent noradrenaline transporter (Homo sapiens, UniProt P23975)
[9] = molecular target: T4, Muscarinic acetylcholine receptor M1; assay type: functional, cell-based; remark: listed apart in the source
[10] = molecular target: T5, Alpha-2A adrenergic receptor (Homo sapiens, UniProt P08913)
T5 sequence (P08913 whole entry): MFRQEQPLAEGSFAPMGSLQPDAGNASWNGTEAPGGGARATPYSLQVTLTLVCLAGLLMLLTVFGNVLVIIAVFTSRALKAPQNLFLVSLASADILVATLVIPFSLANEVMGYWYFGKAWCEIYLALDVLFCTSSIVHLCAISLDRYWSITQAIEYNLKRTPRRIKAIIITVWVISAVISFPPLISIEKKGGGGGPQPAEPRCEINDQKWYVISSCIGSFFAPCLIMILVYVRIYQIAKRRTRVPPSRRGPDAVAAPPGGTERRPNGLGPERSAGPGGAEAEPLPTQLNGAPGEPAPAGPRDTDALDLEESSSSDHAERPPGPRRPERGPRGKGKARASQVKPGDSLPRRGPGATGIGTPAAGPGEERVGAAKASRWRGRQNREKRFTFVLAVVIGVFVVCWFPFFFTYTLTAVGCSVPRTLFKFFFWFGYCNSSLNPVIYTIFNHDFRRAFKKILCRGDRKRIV
Note: assay procedure not described here.

3',5'-cyclic-AMP phosphodiesterase 4A, sequence (P27815 whole entry): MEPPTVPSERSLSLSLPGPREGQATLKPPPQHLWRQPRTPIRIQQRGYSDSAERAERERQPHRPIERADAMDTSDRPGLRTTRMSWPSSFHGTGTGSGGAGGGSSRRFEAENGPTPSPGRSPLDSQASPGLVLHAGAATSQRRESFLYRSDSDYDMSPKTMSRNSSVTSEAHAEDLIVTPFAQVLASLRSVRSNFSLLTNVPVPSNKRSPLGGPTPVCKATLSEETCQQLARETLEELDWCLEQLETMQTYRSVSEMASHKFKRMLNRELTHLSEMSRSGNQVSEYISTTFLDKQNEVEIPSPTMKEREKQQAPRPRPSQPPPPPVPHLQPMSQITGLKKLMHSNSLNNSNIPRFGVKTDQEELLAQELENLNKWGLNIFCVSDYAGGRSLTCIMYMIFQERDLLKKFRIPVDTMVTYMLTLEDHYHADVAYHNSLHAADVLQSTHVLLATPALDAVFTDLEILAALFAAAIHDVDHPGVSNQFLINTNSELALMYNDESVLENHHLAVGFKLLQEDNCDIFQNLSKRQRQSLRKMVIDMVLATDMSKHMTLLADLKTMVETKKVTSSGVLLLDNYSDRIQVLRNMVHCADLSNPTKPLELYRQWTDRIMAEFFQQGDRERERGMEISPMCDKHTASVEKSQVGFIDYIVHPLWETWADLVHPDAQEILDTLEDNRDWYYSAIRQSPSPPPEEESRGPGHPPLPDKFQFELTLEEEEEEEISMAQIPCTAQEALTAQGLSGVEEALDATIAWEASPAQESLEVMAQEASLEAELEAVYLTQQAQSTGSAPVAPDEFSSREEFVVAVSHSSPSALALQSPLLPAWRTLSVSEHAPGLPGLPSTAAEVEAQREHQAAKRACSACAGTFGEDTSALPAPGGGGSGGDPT
Sodium-dependent noradrenaline transporter, sequence (P23975 whole entry): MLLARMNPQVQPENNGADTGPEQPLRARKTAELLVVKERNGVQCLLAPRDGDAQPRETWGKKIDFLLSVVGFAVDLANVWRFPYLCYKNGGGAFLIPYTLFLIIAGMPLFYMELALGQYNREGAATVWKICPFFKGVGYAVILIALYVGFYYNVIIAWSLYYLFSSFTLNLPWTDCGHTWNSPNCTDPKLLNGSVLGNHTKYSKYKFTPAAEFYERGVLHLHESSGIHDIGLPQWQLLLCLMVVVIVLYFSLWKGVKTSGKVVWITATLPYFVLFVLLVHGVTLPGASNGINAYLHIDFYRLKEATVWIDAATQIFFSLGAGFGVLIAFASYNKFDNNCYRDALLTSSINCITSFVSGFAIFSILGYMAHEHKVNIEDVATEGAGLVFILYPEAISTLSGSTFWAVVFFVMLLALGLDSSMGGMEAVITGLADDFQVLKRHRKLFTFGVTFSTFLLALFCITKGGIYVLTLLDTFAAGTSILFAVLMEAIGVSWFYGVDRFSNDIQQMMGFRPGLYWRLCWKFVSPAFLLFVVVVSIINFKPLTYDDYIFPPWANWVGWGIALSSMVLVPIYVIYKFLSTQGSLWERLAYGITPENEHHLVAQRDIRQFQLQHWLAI
Vascular endothelial growth factor receptor 2, sequence (P35968 whole entry): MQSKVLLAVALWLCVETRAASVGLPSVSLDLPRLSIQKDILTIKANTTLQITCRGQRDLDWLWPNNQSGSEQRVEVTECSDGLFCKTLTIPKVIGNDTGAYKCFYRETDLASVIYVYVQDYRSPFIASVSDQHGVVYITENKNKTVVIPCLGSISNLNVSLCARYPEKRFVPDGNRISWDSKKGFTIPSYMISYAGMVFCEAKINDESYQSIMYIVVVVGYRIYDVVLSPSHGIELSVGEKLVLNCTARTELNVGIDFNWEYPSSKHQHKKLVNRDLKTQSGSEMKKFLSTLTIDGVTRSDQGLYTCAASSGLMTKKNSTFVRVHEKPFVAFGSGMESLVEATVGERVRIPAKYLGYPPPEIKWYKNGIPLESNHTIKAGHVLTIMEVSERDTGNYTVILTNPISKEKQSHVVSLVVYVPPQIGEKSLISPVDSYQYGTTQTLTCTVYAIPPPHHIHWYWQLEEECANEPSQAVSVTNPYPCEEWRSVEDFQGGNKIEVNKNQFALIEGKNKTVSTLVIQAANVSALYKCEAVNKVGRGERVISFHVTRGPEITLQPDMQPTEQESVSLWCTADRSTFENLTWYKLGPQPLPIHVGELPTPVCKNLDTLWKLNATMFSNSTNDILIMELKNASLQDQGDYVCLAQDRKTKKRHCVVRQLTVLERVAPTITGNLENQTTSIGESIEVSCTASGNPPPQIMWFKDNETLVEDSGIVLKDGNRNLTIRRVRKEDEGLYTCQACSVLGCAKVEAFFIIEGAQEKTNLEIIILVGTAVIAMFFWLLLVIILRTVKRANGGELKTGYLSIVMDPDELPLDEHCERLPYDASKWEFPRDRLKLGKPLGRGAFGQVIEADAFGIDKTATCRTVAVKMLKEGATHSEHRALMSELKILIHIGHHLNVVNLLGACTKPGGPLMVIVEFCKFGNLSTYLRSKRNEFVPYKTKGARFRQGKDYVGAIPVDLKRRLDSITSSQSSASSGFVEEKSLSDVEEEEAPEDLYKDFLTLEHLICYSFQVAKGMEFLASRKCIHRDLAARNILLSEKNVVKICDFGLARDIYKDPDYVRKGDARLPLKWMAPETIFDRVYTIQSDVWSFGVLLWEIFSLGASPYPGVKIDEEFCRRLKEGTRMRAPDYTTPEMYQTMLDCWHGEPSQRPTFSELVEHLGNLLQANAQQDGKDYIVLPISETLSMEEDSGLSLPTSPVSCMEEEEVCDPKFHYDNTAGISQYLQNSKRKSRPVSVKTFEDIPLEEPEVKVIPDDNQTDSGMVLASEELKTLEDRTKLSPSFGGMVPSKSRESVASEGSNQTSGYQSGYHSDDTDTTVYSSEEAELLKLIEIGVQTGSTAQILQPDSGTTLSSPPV
Prostaglandin G/H synthase 1, sequence (P23219 whole entry): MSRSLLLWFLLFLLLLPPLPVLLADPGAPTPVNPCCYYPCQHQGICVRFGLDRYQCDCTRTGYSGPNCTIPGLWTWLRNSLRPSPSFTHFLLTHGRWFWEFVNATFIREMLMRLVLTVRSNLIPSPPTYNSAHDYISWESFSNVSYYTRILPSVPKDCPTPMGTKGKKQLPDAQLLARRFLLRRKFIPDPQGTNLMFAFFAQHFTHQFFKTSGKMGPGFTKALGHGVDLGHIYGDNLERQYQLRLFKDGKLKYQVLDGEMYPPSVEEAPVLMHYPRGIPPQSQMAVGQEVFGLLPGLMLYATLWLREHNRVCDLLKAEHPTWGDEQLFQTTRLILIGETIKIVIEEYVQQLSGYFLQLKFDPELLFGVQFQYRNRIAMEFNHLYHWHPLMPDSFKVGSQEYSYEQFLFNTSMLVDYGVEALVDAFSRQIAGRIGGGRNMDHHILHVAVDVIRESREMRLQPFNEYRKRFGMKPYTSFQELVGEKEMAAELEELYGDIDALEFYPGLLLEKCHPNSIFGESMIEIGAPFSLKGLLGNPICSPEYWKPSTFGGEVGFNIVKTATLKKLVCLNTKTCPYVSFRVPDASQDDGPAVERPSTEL
Sodium-dependent serotonin transporter, sequence (P31645 whole entry): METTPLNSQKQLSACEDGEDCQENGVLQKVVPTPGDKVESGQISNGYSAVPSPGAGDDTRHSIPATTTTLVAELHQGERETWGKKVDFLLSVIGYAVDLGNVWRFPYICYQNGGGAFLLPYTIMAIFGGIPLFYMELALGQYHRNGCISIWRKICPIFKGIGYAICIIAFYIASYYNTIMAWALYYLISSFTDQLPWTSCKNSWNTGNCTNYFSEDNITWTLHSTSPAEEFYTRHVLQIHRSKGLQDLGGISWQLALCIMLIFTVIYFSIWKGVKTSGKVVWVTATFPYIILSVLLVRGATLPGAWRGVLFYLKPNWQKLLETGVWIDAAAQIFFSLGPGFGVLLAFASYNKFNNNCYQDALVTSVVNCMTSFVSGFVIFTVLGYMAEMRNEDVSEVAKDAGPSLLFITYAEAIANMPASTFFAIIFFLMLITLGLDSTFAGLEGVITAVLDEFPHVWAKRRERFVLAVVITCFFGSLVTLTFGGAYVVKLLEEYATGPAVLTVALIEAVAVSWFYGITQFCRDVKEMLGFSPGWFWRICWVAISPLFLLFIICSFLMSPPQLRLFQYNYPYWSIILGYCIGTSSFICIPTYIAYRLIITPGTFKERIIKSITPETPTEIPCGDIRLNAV
Mu-type opioid receptor, sequence (P35372 whole entry): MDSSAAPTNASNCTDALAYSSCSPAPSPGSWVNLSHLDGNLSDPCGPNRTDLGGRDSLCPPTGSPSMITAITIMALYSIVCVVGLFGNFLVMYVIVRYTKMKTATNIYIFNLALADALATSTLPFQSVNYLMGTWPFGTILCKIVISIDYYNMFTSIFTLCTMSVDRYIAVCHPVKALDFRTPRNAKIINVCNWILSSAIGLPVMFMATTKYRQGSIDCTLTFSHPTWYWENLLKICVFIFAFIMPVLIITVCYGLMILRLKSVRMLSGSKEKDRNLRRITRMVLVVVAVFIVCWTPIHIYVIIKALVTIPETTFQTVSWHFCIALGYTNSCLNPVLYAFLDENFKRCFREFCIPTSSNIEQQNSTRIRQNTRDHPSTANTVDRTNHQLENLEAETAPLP

For `CC(C)(C)C(=O)OCOC(=O)[C@@H]1N2C(=O)[C@@H](NC(=O)[C@H](N)c3ccccc3)[C@H]2SC1(C)C` [PIVAMPICILLIN], the AC50 [1] was 7.48 µM, the AC50 (Thromboxane A2 receptor) was > 30 µM and the AC50 [2] was > 30 µM. The AC50 [3] was > 30 µM, the AC50 [4] was > 30 µM and the AC50 [5] was > 30 µM. The AC50 [6] was 23 µM, the AC50 (Mu-type opioid receptor) was > 30 µM and the AC50 [7] was > 30 µM. For the same molecule, the AC50 [8] was > 30 µM, the AC50 [9] was > 30 µM and the AC50 [10] was > 30 µM.
`COc1ccc(C(=O)Nc2ccccc2CCC2CCCCN2C)cc1` (stereo not given) [ENCAINIDE] was tested, and the AC50 [1] was > 30 µM, the AC50 (Thromboxane A2 receptor) was > 30 µM and the AC50 [2] was > 30 µM. The AC50 [3] was > 30 µM, the AC50 [4] was > 30 µM and the AC50 [5] was > 30 µM. The AC50 [6] was > 30 µM, the AC50 (Mu-type opioid receptor) was > 30 µM and the AC50 [7] was > 30 µM. The AC50 [8] was > 30 µM, the AC50 [9] was > 30 µM and the AC50 [10] was > 30 µM.
In the case of `CC(C)(C)N1CCC(c2ccccc2)(c2ccccc2)CC1` [BUDIPINE], the AC50 [1] is reported as > 30 µM, the AC50 (Thromboxane A2 receptor) is reported as > 30 µM and the AC50 [2] is reported as 0.301 µM. For the same molecule, the AC50 [3] was > 30 µM, the AC50 [4] was > 30 µM and the AC50 [5] was > 30 µM. The AC50 [6] was 0.57 µM, the AC50 (Mu-type opioid receptor) was 12.6 µM and the AC50 [7] was > 30 µM. The AC50 [8] was > 30 µM, the AC50 [9] was > 30 µM and the AC50 [10] was > 30 µM.
For `CC(=O)OCC(=O)[C@@]1(O)CC[C@H]2[C@@H]3CCC4=CC(=O)C=C[C@]4(C)[C@@]3(Cl)[C@@H](Cl)C[C@@]21C` [DICHLORISONE ACETATE], the AC50 [1] was > 30 µM, the AC50 (Thromboxane A2 receptor) was > 30 µM and the AC50 [2] was > 30 µM. For the same molecule, the AC50 [3] was > 30 µM, the AC50 [4] was > 30 µM and the AC50 [5] was > 30 µM. The AC50 [6] was > 30 µM, the AC50 (Mu-type opioid receptor) was > 30 µM and the AC50 [7] was > 30 µM. The AC50 [8] was > 30 µM, the AC50 [9] was > 30 µM and the AC50 [10] was > 30 µM.
`OB1OCc2cc(F)ccc21` [TAVABOROLE] was tested, and the AC50 [1] was > 30 µM, the AC50 (Thromboxane A2 receptor) was > 30 µM and the AC50 [2] was > 30 µM. For the same molecule, the AC50 [3] was > 30 µM, the AC50 [4] was > 30 µM and the AC50 [5] was > 30 µM. The AC50 [6] was > 30 µM, the AC50 (Mu-type opioid receptor) was > 30 µM and the AC50 [7] was > 30 µM. For the same molecule, the AC50 [8] was > 30 µM, the AC50 [9] was > 30 µM and the AC50 [10] was > 30 µM.
With `Nc1ccc(S(=O)(=O)c2cnc(N)s2)cc1` [THIAZOLSULFONE] the AC50 [1] was > 30 µM, the AC50 (Thromboxane A2 receptor) was > 30 µM and the AC50 [2] was > 30 µM. The AC50 [3] was > 30 µM, the AC50 [4] was > 30 µM and the AC50 [5] was > 30 µM. The AC50 [6] was > 30 µM, the AC50 (Mu-type opioid receptor) was > 30 µM and the AC50 [7] was > 30 µM. The AC50 [8] was > 30 µM, the AC50 [9] was > 30 µM and the AC50 [10] was > 30 µM.
`CC(=O)Oc1ccc2c(c1)CC[C@@H]1[C@@H]2CC[C@]2(C)[C@@H](O)CC[C@@H]12` [ESTRADIOL ACETATE] was tested, and the AC50 [1] was > 30 µM, the AC50 (Thromboxane A2 receptor) was > 30 µM and the AC50 [2] was > 30 µM. For the same molecule, the AC50 [3] was > 30 µM, the AC50 [4] was > 30 µM and the AC50 [5] was 15 µM. For the same molecule, the AC50 [6] was 7.24 µM, the AC50 (Mu-type opioid receptor) was 9.04 µM and the AC50 [7] was > 30 µM. For the same molecule, the AC50 [8] was > 30 µM, the AC50 [9] was > 30 µM and the AC50 [10] was > 30 µM.
In the case of `CCN(CC)CCOC(=O)C(c1ccccc1)C1CCCCC1` (stereo not given) [DROFENINE], the AC50 [1] is reported as > 30 µM, the AC50 (Thromboxane A2 receptor) is reported as > 30 µM and the AC50 [2] is reported as 0.0342 µM. For the same molecule, the AC50 [3] was > 30 µM, the AC50 [4] was > 30 µM and the AC50 [5] was 9.55 µM. For the same molecule, the AC50 [6] was 0.0078 µM, the AC50 (Mu-type opioid receptor) was 25.3 µM and the AC50 [7] was > 30 µM. The AC50 [8] was 13 µM, the AC50 [9] was > 30 µM and the AC50 [10] was 24.1 µM.
With `CCN(CC)CCNc1ccc(CO)c2sc3ccccc3c(=O)c12` [HYCANTHONE] the AC50 [1] was > 30 µM, the AC50 (Thromboxane A2 receptor) was > 30 µM and the AC50 [2] was 4.47 µM. The AC50 [3] was 16 µM, the AC50 [4] was > 30 µM and the AC50 [5] was 1.4 µM. For the same molecule, the AC50 [6] was 17.6 µM, the AC50 (Mu-type opioid receptor) was 23 µM and the AC50 [7] was > 30 µM. The AC50 [8] was 11.9 µM, the AC50 [9] was > 30 µM and the AC50 [10] was 1.73 µM.
In the case of `CC[C@@H](C(N)=O)N1CCCC1=O`, the AC50 [1] is reported as > 30 µM, the AC50 (Thromboxane A2 receptor) is reported as > 30 µM and the AC50 [2] is reported as > 30 µM. For the same molecule, the AC50 [3] was > 30 µM, the AC50 [4] was > 30 µM and the AC50 [5] was > 30 µM. The AC50 [6] was > 30 µM, the AC50 (Mu-type opioid receptor) was > 30 µM and the AC50 [7] was > 30 µM. For the same molecule, the AC50 [8] was > 30 µM, the AC50 [9] was > 30 µM and the AC50 [10] was > 30 µM.
